Broadly, the EC50 is the concentration needed to bring the measured effect to its halfway point. Read a low EC50 as a more potent agent.

Test [1] has as its target T1, human mu opioid receptor (Homo sapiens, UniProt P35372).
T1 construct: purchased Perkin Elmer, Boston, Mass; 6110535; host or cells: CHO cells
Put plainly: radioligand binding, human mu opioid receptor, CHO cell membranes. The conditions noted are these: species not given, read-out: μ.

Test [2] concerns the target T2, human delta receptor (Homo sapiens, UniProt P41143).
T2 construct: purchased Perkin Elmer, Boston, Mass; 6110549; host or cells: HEK-293 cells
Put plainly: radioligand binding, human delta receptor, HEK-293 cell membranes. The conditions noted are these: cell not marked (rat), species not given, read-out: δ.

For test [3], the system named is mouse vas deferens. The experiment in a line: electrically stimulated mouse vas deferens (MVD) ED50. The class given is cell-based. The following applies: ED50, inhibition of electrically induced contractions.

Each structure is given as a SMILES string.

T2 sequence (P41143 whole entry): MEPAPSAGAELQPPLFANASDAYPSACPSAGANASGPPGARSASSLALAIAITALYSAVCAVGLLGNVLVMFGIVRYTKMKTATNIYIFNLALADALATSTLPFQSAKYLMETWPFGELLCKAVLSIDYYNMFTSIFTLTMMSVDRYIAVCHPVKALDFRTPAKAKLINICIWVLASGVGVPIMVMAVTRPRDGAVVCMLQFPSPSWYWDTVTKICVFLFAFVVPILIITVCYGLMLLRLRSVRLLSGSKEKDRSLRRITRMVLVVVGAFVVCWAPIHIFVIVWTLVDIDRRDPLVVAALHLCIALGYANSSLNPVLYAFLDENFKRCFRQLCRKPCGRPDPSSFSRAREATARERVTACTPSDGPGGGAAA
T1 sequence (P35372 whole entry): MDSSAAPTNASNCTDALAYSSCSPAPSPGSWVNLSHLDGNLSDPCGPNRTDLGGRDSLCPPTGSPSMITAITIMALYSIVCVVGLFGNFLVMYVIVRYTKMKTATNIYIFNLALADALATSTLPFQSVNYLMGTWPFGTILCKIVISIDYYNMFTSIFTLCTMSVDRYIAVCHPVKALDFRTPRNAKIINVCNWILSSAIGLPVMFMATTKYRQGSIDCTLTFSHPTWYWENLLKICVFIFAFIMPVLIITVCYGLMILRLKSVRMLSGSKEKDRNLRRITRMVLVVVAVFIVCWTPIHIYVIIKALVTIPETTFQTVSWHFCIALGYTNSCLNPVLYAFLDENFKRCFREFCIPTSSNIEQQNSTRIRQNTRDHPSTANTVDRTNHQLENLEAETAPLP

Consider `C=CCN1C[C@H](C)N(C(c2cccc(O)c2)c2cccc(C(=O)N3CCCN(CCCCCC(=O)OCC)CC3)c2)C[C@H]1C` (stereo partly shown), for which the Ki in test [1] worked out at 21.3 nM; in test [2], 3.2 nM. In test [3], this molecule showed an EC50 of 43.3 nM.
The corresponding values for `C[C@@H]1CN(C(c2cccc(O)c2)c2cccc(C(=O)N3CCCN(CCCCC(=O)O)CC3)c2)[C@@H](C)CN1CC1CC1` (stereo partly shown) are 558 nM, 62.1 nM and 77.5 nM.
For `C[C@@H]1CN([C@@H](c2cccc(O)c2)c2cccc(C(=O)N3CCN(CCCCC(=O)O)CC3)c2)[C@@H](C)CN1CC1CC1` [Example 90, 5-(4-{3-[(R)-((2S,5R)-4-Cyclopropylmethyl-2,5-dimethyl-piperazin-1-yl)-(3-hydroxy-phenyl)-methyl]-benzoyl}-piperazin-1-yl)-pentanoic acid], the results for the Ki in test [1] and in test [2] were 409 nM and 32.5 nM, respectively. The molecule further had an EC50 in test [3] of 46.2 nM.
The corresponding values for `CCOC(=O)CCCCCN1CCN(C(=O)c2cccc([C@H](c3cccc(O)c3)N3C[C@@H](C)N(Cc4cccc(F)c4)C[C@@H]3C)c2)CC1` [Example 98, 6-(4-{3-[(R)-((2S,5R)-4-(3-Fluorobenzyl)-2,5-dimethyl-piperazin-1-yl)-(3-hydroxy-phenyl)-methyl]-benzoyl}-piperazin-1-yl)-hexanoic acid ethyl ester] are 8.5 nM, 7.1 nM and 102 nM.
The matching figures for `C[C@@H]1CN(C(c2cccc(O)c2)c2cccc(C(=O)N3CCCN(CCCCCCC(=O)O)CC3)c2)[C@@H](C)CN1Cc1cccc(F)c1` (stereo partly shown): 222 nM, 141 nM and 109 nM.
With `COCCN1C[C@H](C)N([C@@H](c2cccc(O)c2)c2cccc(C(=O)N3CCN(Cc4ccc(C(=O)O)cc4)CC3)c2)C[C@H]1C` [Example 105, 4-[4-(3-{(R)-(3-Hydroxy-phenyl)-[(2S,5R)-4-(2-methoxy-ethyl)-2,5-dimethyl-piperazin-1-yl]-methyl}-benzoyl)-piperazin-1-ylmethyl]-benzoic acid], the values for the Ki in test [1] and in test [2] were 88.6 nM and 32 nM, respectively. The EC50 in test [3] was 30.6 nM.
The corresponding values for `CCOC(=O)CCCCCN1CCCN(C(=O)c2cccc(C(c3cccc(O)c3)N3C[C@@H](C)N(Cc4ccccc4)C[C@@H]3C)c2)CC1` (stereo partly shown) are 23.4 nM, 3.7 nM and 29.6 nM.
In test [3], `C=CCN1C[C@H](C)N(C(c2cccc(O)c2)c2cccc(C(=O)N3CCCN(Cc4cccc(C(=O)OC)c4)CC3)c2)C[C@H]1C` (stereo partly shown) registered an EC50 of 19.6 nM.
Molecule `C[C@@H]1CN([C@@H](c2cccc(O)c2)c2cccc(C(=O)N3CCN(CCCCCC(=O)O)CC3)c2)[C@@H](C)CN1CC1CC1` [Example 101, 6-(4-{3-[(R)-((2S,5R)-4-Cyclopropylmethyl-2,5-dimethyl-piperazin-1-yl)-(3-hydroxy-phenyl)-methyl]-benzoyl}-piperazin-1-yl)-hexanoic acid] gave an EC50 in test [3] of 75.8 nM.
On to `CCOC(=O)CCCCCCN1CCN(C(=O)c2cccc([C@H](c3cccc(O)c3)N3C[C@@H](C)N(Cc4cccc(F)c4)C[C@@H]3C)c2)CC1` [Example 112, 7-(4-{3-[(R)-[(2S,5R)-4-(3-Fluoro-benzyl)-2,5-dimethyl-piperazin-1-yl]-(3-hydroxy-phenyl)-methyl]-benzoyl}-piperazin-1-yl)-heptanoic acid ethyl ester], for which, in test [1], the Ki turned out to be 5.9 nM. The molecule also registered an EC50 in test [3] of 111 nM.
For `C[C@@H]1CN(C(c2cccc(O)c2)c2cccc(C(=O)N3CCCN(CC(=O)O)CC3)c2)[C@@H](C)CN1Cc1cccc(F)c1` (stereo partly shown), in test [1], the Ki came to 3.1 nM.
With `CCOC(=O)CCCN1CCN(C(=O)c2cccc([C@H](c3cccc(O)c3)N3C[C@@H](C)N(CC4CC4)C[C@@H]3C)c2)CC1` [Example 77, 4-(4-{3-[(R)-((2S,5R)-4-Cyclopropylmethyl-2,5-dimethyl-piperazin-1-yl)-(3-hydroxy-phenyl)-methyl]-benzoyl}-piperazin-1-yl)-butyric acid ethyl ester], the Ki in test [1] turned out to be 4.4 nM; in test [2], 402 nM. This molecule came in with an EC50 in test [3] of 111 nM.
The corresponding values for `CCOC(=O)CCCCCN1CCCN(C(=O)c2cccc(C(c3cccc(O)c3)N3C[C@@H](C)N(CC4CC4)C[C@@H]3C)c2)CC1` (stereo partly shown) are 9.3 nM, 23.5 nM and 1040 nM.
The matching figures for `C[C@@H]1CN(C(c2cccc(O)c2)c2cccc(C(=O)N3CCCN(CCCCCC(=O)O)CC3)c2)[C@@H](C)CN1CC1CC1` (stereo partly shown): 20.3 nM, 5.6 nM and 110 nM.
The matching figures for `C[C@@H]1CN(C(c2cccc(O)c2)c2cccc(C(=O)N3CCCN(CCCCCC(=O)O)CC3)c2)[C@@H](C)CN1Cc1cccc(F)c1` (stereo partly shown): 222 nM, 25.1 nM and 16.2 nM.
As for `CCOC(=O)CCCCCCN1CCN(C(=O)c2cccc([C@H](c3cccc(O)c3)N3C[C@@H](C)N(CC4CC4)C[C@@H]3C)c2)CC1` [Example 114, 7-(4-{3-[(R)-((2S,5R)-4-Cyclopropylmethyl-2,5-dimethyl-piperazin-1-yl)-(3-hydroxy-phenyl)-methyl]-benzoyl}-piperazin-1-yl)-heptanoic acid ethyl ester], the EC50 in test [3] is 221 nM.
On to `C[C@@H]1CN([C@@H](c2cccc(O)c2)c2cccc(C(=O)N3CCN(CCCCCCC(=O)O)CC3)c2)[C@@H](C)CN1CC1CC1` [Example 115, 7-(4-{3-[(R)-((2S,5R)-4-Cyclopropylmethyl-2,5-dimethyl-piperazin-1-yl)-(3-hydroxy-phenyl)-methyl]-benzoyl}-piperazin-1-yl)-heptanoic acid], for which the Ki in test [2] worked out at 22 nM. The molecule also returned an EC50 in test [3] of 85.8 nM.
The corresponding values for `C[C@@H]1CN([C@@H](c2cccc(O)c2)c2cccc(C(=O)N3CCN(CC(=O)O)CC3)c2)[C@@H](C)CN1Cc1ccc(F)cc1` [Example 116, (4-{3-[(R)-[(2S,5R)-4-(4-Fluoro-benzyl)-2,5-dimethyl-piperazin-1-yl]-(3-hydroxy-phenyl)-methyl]-benzoyl}-piperazin-1-yl)-acetic acid] are 0.83 nM and 1.95 nM.
Turning to `CCOC(=O)CCCCN1CCN(C(=O)c2cccc([C@H](c3cccc(O)c3)N3C[C@@H](C)N(CC4CC4)C[C@@H]3C)c2)CC1` [Example 89, 5-(4-{3-[(R)-((2S,5R)-4-Cyclopropylmethyl-2,5-dimethyl-piperazin-1-yl)-(3-hydroxy-phenyl)-methyl]-benzoyl}-piperazin-1-yl)-pentanoic acid ethyl ester], the Ki came to 23.2 nM in test [1] and 15.4 nM in test [2]. The EC50 in test [3] came to 92.7 nM.
As for `C=CCN1C[C@H](C)N(C(c2cccc(O)c2)c2cccc(C(=O)N3CCCN(CCCCCCC(=O)O)CC3)c2)C[C@H]1C` (stereo partly shown), the Ki in test [1] was 8.3 nM; in test [2], 5.6 nM. In addition, in test [3], the midpoint of the response, the EC50, lay at 34.9 nM.
The corresponding values for `CCOC(=O)CCCCN1CCN(C(=O)c2cccc([C@H](c3cccc(O)c3)N3C[C@@H](C)N(Cc4cccc(F)c4)C[C@@H]3C)c2)CC1` [Example 87, 5-(4-{3-[(R)-((2S,5R)-4-(3-Fluorobenzyl)-2,5-dimethyl-piperazin-1-yl)-(3-hydroxy-phenyl)-methyl]-benzoyl}-piperazin-1-yl)-pentanoic acid ethyl ester] are 21.3 nM, 10.8 nM and 36.2 nM.
Consider `C=CCN1C[C@H](C)N(C(c2cccc(O)c2)c2cccc(C(=O)N3CCCN(Cc4ccccc4C(=O)OC)CC3)c2)C[C@H]1C` (stereo partly shown), for which the EC50 in test [3] is 21.8 nM.
Regarding `C[C@@H]1CN([C@@H](c2cccc(O)c2)c2cccc(C(=O)N3CCN(Cc4ccc(C(=O)O)cc4)CC3)c2)[C@@H](C)CN1Cc1cccc(O)c1` [Example 104, 4-(4-{3-[(R)-[(2S,5R)-4-(3-Hydroxy-benzyl)-2,5-dimethyl-piperazin-1-yl]-(3-hydroxy-phenyl)-methyl]-benzoyl}-piperazin-1-ylmethyl)-benzoic acid], the Ki in test [1] is 19.4 nM; in test [2] it was 0.99 nM. In test [3], the EC50 worked out at 2.06 nM.
The matching figures for `C=CCN1C[C@H](C)N(C(c2cccc(O)c2)c2cccc(C(=O)N3CCCN(CCCCCCC(=O)OCC)CC3)c2)C[C@H]1C` (stereo partly shown): 3.9 nM, 3.1 nM and 52.3 nM.
On to `C=CCN1C[C@H](C)N([C@@H](c2cccc(O)c2)c2cccc(C(=O)N3CCN(Cc4cccc5c4ccn5CC(=O)O)CC3)c2)C[C@H]1C` [Example 107, [4-(4-{3-[(R)-((2S,5R)-4-Allyl-2,5-dimethyl-piperazin-1-yl)-(3-hydroxy-phenyl)-methyl]-benzoyl}-piperazin-1-ylmethyl)-indol-1-yl]-acetic acid], for which the values for the Ki in test [1] and in test [2] were 6.5 nM and 0.95 nM, respectively. In test [3], this molecule came in with an EC50 of 3.97 nM.
The corresponding values for `C[C@@H]1CN(C(c2cccc(O)c2)c2cccc(C(=O)N3CCCN(CCCCCCC(=O)O)CC3)c2)[C@@H](C)CN1Cc1ccccc1` (stereo partly shown) are 6.3 nM, 4.9 nM and 10.4 nM.
As to `CCOC(=O)CCCCCN1CCN(C(=O)c2cccc([C@H](c3cccc(O)c3)N3C[C@@H](C)N(CC4CC4)C[C@@H]3C)c2)CC1` [Example 100, 6-(4-{3-[(R)-((2S,5R)-4-Cyclopropylmethyl-2,5-dimethyl-piperazin-1-yl)-(3-hydroxy-phenyl)-methyl]-benzoyl}-piperazin-1-yl)-hexanoic acid ethyl ester], in test [3], the EC50 came to 170 nM.
Regarding `C=CCN1C[C@H](C)N([C@@H](c2cccc(O)c2)c2cccc(C(=O)N3CCN(CCCCCCC(=O)OCC)CC3)c2)C[C@H]1C` [Example 108, 7-(4-{3-[(R)-((2S,5R)-4-Allyl-2,5-dimethyl-piperazin-1-yl)-(3-hydroxy-phenyl)-methyl]-benzoyl}-piperazin-1-yl)-heptanoic acid ethyl ester], in test [3], the EC50 worked out at 31.7 nM.
